EC50 data for 40 compounds are collected here from US8088806B2 (Achillion Pharmaceuticals, Inc., priority 2005, dated 2012).

This assay concerns HCV replicon. The assay is described as follows: Replicon based assay of HCV replication inhibition (NPT ELISA). The assay is classed as cell-based, Hepatitis C virus. The settings on record: Hepatitis C virus, Huh-7, 72 h, Table III; Huh-7 HCV replicon-containing cells, three days; read-out: Activity. In short, it runs like this: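 Huh-7 cells carrying a bicistronic HCV replicon (neo, EMCV-IRES-driven NS3–NS5B) treated overnight after seeding with usually 6 concentrations, 10 to 0.03 micromolar, for three days at 37° C without G418. Replication read as NPT level by captured ELISA; matched-DMSO wells and interferon alpha as controls.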
Background: In antiviral work, replicon cells carry a viral genome segment that copies itself.
Consider `CCCCCOc1ccc(Nc2nc(Cc3ccc(F)cc3)cs2)cc1F` [compound 630, 4-(4-fluorobenzyl)-N-(3-fluoro-4-(pentyloxy)phenyl)thiazol-2-amine], for which the EC50 was over 10000 nM.

Take `CCCCCN(C)c1ccc(Nc2nc(Cc3ccc(F)cc3)cs2)cc1C(F)(F)F` [compound 631, N^4-(4-(4-fluorobenzyl)thiazol-2-yl)-2-(trifluoromethyl)-N^1-methyl-N^1-pentylbenzene-1,4-diamine]: the EC50 is over 10000 nM. With `CCCCCCCCN(C)c1ccc(Nc2nc(Cc3ccc(F)cc3)cs2)cc1` [compound 632, N^1-(4-(4-fluorobenzyl)thiazol-2-yl)-N^4-methyl-N^4-octylbenzene-1,4-diamine], the EC50 is over 10000 nM. The result for `CCCCCOc1ccc(Nc2nc(Cc3ccc(Cl)cc3)cs2)cc1C(F)(F)F` [compound 633, 4-(4-chlorobenzyl)-N-(3-(trifluoromethyl)-4-(pentyloxy)phenyl)thiazol-2-amine] reads 1000 to 10000 nM; that for `CCCCCCCCOc1ccc(Nc2nc(Cc3ccc(Cl)cc3)cs2)cc1` [compound 634, 4-(4-chlorobenzyl)-N-(4-(octyioxy)phenyl)thiazol-2-amine], over 10000 nM. As for `CCCCCCCCOc1ccc(Nc2nc(Cc3ccc(Cl)cc3)cs2)cc1C(F)(F)F` [compound 635, 4-(4-chlorobenzyl)-N-(3-(trifluoromethyl)-4-(octyloxy)phenyl)thiazol-2-amine], the EC50 lay within 1000 to 10000 nM. With `CCCCCOc1ccc(Nc2nc(Cc3ccc(Cl)cc3)cs2)cc1F` [compound 636, 4-(4-chlorobenzyl)-N-(3-fluoro-4-(pentyloxy)phenyl)thiazol-2-amine], the EC50 was over 10000 nM. In the case of `CCCCCCCCN(C)c1ccc(Nc2nc(Cc3ccc(Cl)cc3)cs2)cc1` [compound 638, N^1-(4-(4-chlorobenzyl)thiazol-2-yl)-N^4-methyl-N^4-octylbenzene-1,4-diamine], the EC50 fell in the range of 1000 to 10000 nM. For the compound `CCCCCOc1ccc(Nc2nc(Cc3ccc(OC)cc3)cs2)cc1C(F)(F)F` [compound 639, 4-(4-methoxybenzyl)-N-(3-(trifluoromethyl)-4-(pentyloxy)phenyl)thiazol-2-amine], the EC50 lay within 1000 to 10000 nM. As for `CCCCCCCCOc1ccc(Nc2nc(Cc3ccc(OC)cc3)cs2)cc1` [compound 640, 4-(4-methoxybenzyl)-N-(4-(octyloxy)phenyl)thiazol-2-amine], the EC50 is over 10000 nM.

Consider `CCCCCCCCOc1ccc(Nc2nc(Cc3ccc(OC)cc3)cs2)cc1C(F)(F)F` [compound 641, 4-(4-methoxybenzyl)-N-(3-(trifluoromethyl)-4-(octyloxy)phenyl)thiazol-2-amine], for which the EC50 is under 1000 nM. The same measure for `CCCCCOc1ccc(Nc2nc(Cc3ccc(OC)cc3)cs2)cc1F` [compound 642, 4-(4-methoxybenzyl)-N-(3-fluoro-4-(pentyloxy)phenyl)thiazol-2-amine]: over 10000 nM; for `CCCCCN(C)c1ccc(Nc2nc(Cc3ccc(OC)cc3)cs2)cc1C(F)(F)F` [compound 643, N^4-(4-(4-methoxybenzyl)thiazol-2-yl)-2-(trifluoromethyl)-N^1-methyl-N^1-pentylbenzene-1,4-diamine]: over 10000 nM; for `CCCCCCCCN(C)c1ccc(Nc2nc(Cc3ccc(OC)cc3)cs2)cc1` [compound 644, N^1-(4-(4-methoxybenzyl)thiazol-2-yl)-N^4-methyl-N^4-octylbenzene-1,4-diamine]: over 10000 nM. For the compound `CCC(CC)Oc1ccc(Nc2nc(-c3cccnc3)cs2)cc1C(F)(F)F` [compound 645, N-(3-(trifluoromethyl)-4-(pentan-3-yloxy)phenyl)-4-(pyridin-3-yl)thiazol-2-amine], the EC50 is under 1000 nM. The result for `CCCCCOc1ccc(Nc2nc(-c3cncc(C(=O)O)c3)cs2)cc1C(F)(F)F` [compound 646, 5-(2-(3-(trifluoromethyl)-4-(pentyloxy)phenylamino)thiazol-4-yl)pyridine-3-carboxylic acid] reads under 1000 nM. Consider `CCCCCOc1ccc(Nc2nc(-c3cncc(C(=O)N(C)C)c3)cs2)cc1C(F)(F)F` [compound 647, 5-(2-(3-(trifluoromethyl)-4-(pentyloxy)phenylamino)thiazol-4-yl)-N,N-dimethylpyridine-3-carboxamide], for which the EC50 was under 1000 nM.

For `CCCCCCCCOc1ccc(Nc2nc(-c3cncc(C(=O)O)c3)cs2)cc1` [compound 648, 5-(2-(4-(octyloxy)phenylamino)thiazol-4-yl)pyridine-3-carboxylic acid], the EC50 lay within 1000 to 10000 nM. Turning to `CCCCCCCCOc1ccc(Nc2nc(-c3cncc(C(=O)N(C)C)c3)cs2)cc1` [compound 649, 5-(2-(4-(octyloxy)phenylamino)thiazol-4-yl)-N,N-dimethylpyridine-3-carboxamide], the EC50 was in the range of 1000 to 10000 nM. The result for `CCCCCCCCOc1ccc(Nc2nc(O)cs2)cc1C(F)(F)F` [compound 650, 2-(3-(trifluoromethyl)-4-(octyloxy)phenylamino)thiazol-4-ol] reads 1000 to 10000 nM. As for `CCCCCCCCN(C)c1ccc(Nc2nc(O)cs2)cc1C(F)(F)F` [compound 651], the EC50 was in the range of 1000 to 10000 nM. For `Oc1csc(Nc2ccc(OCCCC3CCCC3)c(C(F)(F)F)c2)n1` [compound 652], the EC50 was in the range of 1000 to 10000 nM.

On to `CCCCCCCCOc1ccc(Nc2nc(-c3cncc(C(N)=O)c3)cs2)cc1` [compound 653, 5-(2-(4-(octyloxy)phenylamino)thiazol 4-yl)pyridine-3-carboxamide], for which the EC50 was under 1000 nM. The result for `CCCCCCCCOc1ccc(Nc2nc(-c3cncc(C#N)c3)cs2)cc1C(F)(F)F` [compound 654, 5-(2-(3-(trifluoromethyl)-4-(octyloxy)phenylamino)thiazol-4-yl)pyridine-3-carbonitrile] reads under 1000 nM; that for `CCCCCCCCOc1ccc(Nc2nc(-c3cncc(C#N)c3)cs2)cc1` [compound 655, 5-(2-(4-(octyloxy)phenylamino)thiazol-4-yl)pyridine-3-carbonitrile], under 1000 nM. Regarding `CCCCCCCCOc1ccc(Nc2nc(-c3cncc(OC)c3)cs2)cc1C(F)(F)F` [compound 656, N-(3-(trifluoromethyl)-4-(octyloxy)phenyl)-4-(5-methoxypyridin-3-yl)thiazol-2-amine], the EC50 was 1000 to 10000 nM. For `CCCCCCCCOc1ccc(Nc2nc(-c3cncc(OC)c3)cs2)cc1` [compound 657, 4-(5-methoxypyridin-3-yl)-N-(4-(octyloxy)phenyl)thiazol-2-amine], the EC50 lay within 1000 to 10000 nM. The result for `FC(F)(F)c1cc(Nc2nc(-c3cccnc3)cs2)ccc1OCC1CCCCC1` [compound 658, N-(4-(cyclohexylmethoxy)-3-(trifluoromethyl)phenyl)-4-(pyridin-3-yl)thiazol-2-amine] reads under 1000 nM; that for `CCCCCCCCOc1ccc(Nc2nc(-c3cnc(O)cc3C)cs2)cc1C(F)(F)F` [compound 659, 5-(2-(3-(trifluoromethyl)-4-(octyloxy)phenylamino)thiazol-4-yl)-4-methylpyridin-2-ol], under 1000 nM; that for `CCCCCCCCOc1ccc(Nc2nc(-c3ccc4c(c3)COC4=O)cs2)cc1C(F)(F)F` [compound 660, 5-(2-(3-(trifluoromethyl)-4-(octyloxy)phenylamino)thiazol-4-yl)isobenzofuran-1(3H)-one], under 1000 nM. In the case of `CCCCCCCCOc1ccc(Nc2nc(-c3ccc(-n4ccnc4)cc3)cs2)cc1C(F)(F)F` [compound 661, 4-(4-(1H-imidazol-1-yl)phenyl)-N-(3-(trifluoromethyl)-4-(octyloxy)phenyl)thiazol-2-amine], the EC50 is under 1000 nM. Take `CCCCCCCCOc1ccc(Nc2nc(-c3cnc(OC)nc3)cs2)cc1C(F)(F)F` [compound 662, N-(3-(trifluoromethyl)-4-(octyloxy)phenyl)-4-(2-methoxypyrimidin-5-yl)thiazol-2-amine]: the EC50 is under 1000 nM. As to `CCCCCCCCOc1ccc(Nc2nc(-c3cncn3C)cs2)cc1C(F)(F)F` [compound 663, N-(3-(trifluoromethyl)-4-(octyloxy)phenyl)-4-(1-methyl-1H-imidazol-5-yl)thiazol-2-amine], the EC50 was under 1000 nM. Turning to `CCCCCCCCOc1ccc(Nc2nc(-c3cccc4nsnc34)cs2)cc1C(F)(F)F` [compound 664, 4-(benzo[c][1,2,5]thiadiazol-4-yl)-N-(3-(trifluoromethyl)-4-(octyloxy)phenyl)thiazol-2-amine], the EC50 was under 1000 nM.

On to `CCCCCCCCOc1ccc(Nc2nc(-c3ccc4[nH]c(=O)oc(=O)c4c3)cs2)cc1C(F)(F)F` [compound 665, 6-(2-(3-(trifluoromethyl)-4-(octyloxy)phenylamino)thiazol-4-yl)-1H-benzo[d][1,3]oxazine-2,4-dione], for which the EC50 is under 1000 nM.

Consider `CCCCCCCCOc1ccc(Nc2nc(-c3ccc(CCO)cc3)cs2)cc1C(F)(F)F` [compound 666, 2-(4-(2-(3-(trifluoromethyl)-4-(octyloxy)phenylamino)thiazol-4-yl)phenyl)ethanol], for which the EC50 was under 1000 nM. As to `CCCCCCCCOc1ccc(Nc2nc(-c3ccsc3C(N)=O)cs2)cc1C(F)(F)F` [compound 667, 3-(2-(3-(trifluoromethyl)-4-(octyloxy)phenylamino)thiazol-4-yl)thiophene-2-carboxamide], the EC50 was under 1000 nM. As to `CCCCCCCCOc1ccc(Nc2nc(-c3ccc(-c4csnn4)cc3)cs2)cc1C(F)(F)F` [compound 668, 4-(4-(1,2,3-thiadiazol-4-yl)phenyl)-N-(3-(trifluoromethyl)-4-(octyloxy)phenyl)thiazol-2-amine], the EC50 is under 1000 nM.

Turning to `CCCCCCCCOc1ccc(Nc2nc(-c3ccc4c(c3)SCC(=O)N4)cs2)cc1C(F)(F)F` [compound 669, 7-(2-(3-(trifluoromethyl)-4-(octyloxy)phenylamino)thiazol-4-yl)-2H-benzo[b][1,4]thiazin-3(4H)-one], the EC50 is under 1000 nM. The same measure for `CCCCCCCCOc1ccc(Nc2nc(-c3ccc(N)nn3)cs2)cc1C(F)(F)F` [compound 670, 6-(2-(3-(trifluoromethyl)-4-(octyloxy)phenylamino)thiazol-4-yl)pyridazin-3-amine]: under 1000 nM.
